Data from patent US7053069B2, “Pharmaceutical compositions and methods of using C-21 modified epothilone derivatives” (Bristol-Myers Squibb Company, priority 2002, dated 2006).

Legend:
[1] = Stability of aqueous solution, time for 5% drug loss (t95); type: physicochemical; details: 37° C.
From the text: Administering one or more epothilones of formula I, Ia, Ib or Ic, or a pharmaceutically acceptable salt, solvate, clathrate, hydrate, or prodrug thereof, in combination with a pharmaceutically acceptable acid neutralizing buffer provides increased bioavailability of the one or more epothilones of formula I, Ia, Ib or Ic. Without being limited by theory, it is believed that the increased bioavailability is due, at least in significant part, to the buffer decreasing the rate of decomposition of the epothilones of formula I, Ia, Ib or Ic, or a pharmaceutically acceptable salt, solvate, clathrate, hydrate, or prodrug thereof, in the acidic environment of the stomach. Certain epothilones, including the epothilone of formula Ic, are unstable in acidic aqueous environments and decompose, presumably by an acid catalyzed hydrolytic opening of the epoxide ring. For example, the time for 5% drug loss (t95) at 37° C. for an aqueous solution of Compound A (epothilone of formula Ic) is approximately 14 h at pH 7, but <0.2 hours at pH 2.5. Thus, when epothilones of formula I, Ia, Ib or Ic, or a pharmaceutically acceptable salt, solvate, clathrate, hydrate, or prodrug thereof, are orally administered they decompose in the stomach of the patient such that they are either minimally absorbed or not absorbed by the gastrointestinal tract.

[2] = Degradation of drug during solution preparation and lyophilization; type: physicochemical; details: dissolution at about 5° C., pH 6.0, lyophilization at −15° C. 34 hours, drying at 25° C. 24 hours
Experimental: [1S-[1R*,3R*(E),7R*,10S*,11R*,12R*,16S*]]-3-[2-[2-(Aminomethyl)-4-thiazolyl]-1-methylethenyl]-7,11-dihydroxy-8,8,10,12,16-pentamethyl-4,17-dioxabicyclo[14.1.0]heptadecane-5,9-dione (compound of formula Ic) (8.7 g) was dissolved in 1280 mL of an aqueous solution of citric acid (10.1 grams) and dextran 40 (80 grams) which had been pre-cooled to about 5° C. Once the drug powder had become completely dissolved, the solution pH was adjusted to 6.0 and Water for Injection (178 mL) was added.
The solution formed above was promptly lyophilized in a Virtis Genesis(TM) lyophilizer at −15° C. with exclusion of light over a period of 34 hours. The resultant lyophile was then further dried at 25° C. under high vacuum for 24 hours. […] The lyophile was packaged under clean conditions into 15 mL vials, each containing 10 mg of drug plus a 10% excess to allow for transfer and dispensing (vial/needle/syringe, VNS) losses.

[3] = Clinical pharmacokinetics, 15-minute infusion once every three weeks; type: in vivo, human
Experimental: (§1) Compound A was administered to human patients once every three (3) weeks as a 15-minute infusion, using an accelerated followed by modified Fibonacci dose escalation design. Twenty-two (22) patients were treated at does levels of 0.6, 1.2, 2.5, 5, 10, 20, 30 and 40 mg/m^2.

[4] = tested on: taxane-sensitive and taxane-resistant tumor models; assay: Anticancer activity in tumor models
[5] = Aqueous solubility / formulation without surfactants; type: physicochemical
Experimental: The epothilones of formula Ic may be formulated without the use of surfactants to a concentration of about at least 20 mg/mL with pH adjustment. If formulations containing a surfactant are desired, the lyophilized epothilone analogs represented by formula I, Ia, Ib and Ic are reconstituted with a mixture of equal parts by volume of Dehydrated Alcohol, USP and a nonionic surfactant, preferably a polyoxyethylated castor oil surfactant (available from GAF Corporation, Mount Olive, N.J., under the trademark, Cremophor EL). Alternately, an oral suspension can be prepared by pH adjustment and the use of a stabilizer, surfactant, and/or viscosity enhancing agent, and may be administered alone or with water or with a pharmaceutically acceptable acid neutralizing buffer.

[6] = Clinical toxicity in dose escalation study; type: in vivo; details: human patients
Experimental: as §1

[7] = human, 30 mg/m^2, cycle 1, mean, n=7
[8] = plasma, intravenous, 30 mg/m2, human, 30 mg/m^2, cycle 1, mean, n=7

In the case of `C/C(=C\c1csc(CN)n1)[C@@H]1C[C@@H]2O[C@]2(C)CCC[C@H](C)[C@H](O)[C@@H](C)C(=O)C(C)(C)[C@@H](O)CC(=O)O1` [Compound A, [1S-[1R*,3R*(E),7R*,10S*,11R*,12R*,16S*]]-3-[2-[2-(aminomethyl)-4-thiazolyl]-1-methylethenyl]-7,11-dihydroxy-8,8,10,12,16-pentamethyl-4,17-dioxabicyclo[14.1.0]heptadecane-5,9-dione], the “time for 5% drug loss (t95)” value ([1]; pH 2.5) is reported as less than 0.2 h, the “time for 5% drug loss (t95)” value ([1]; pH 7) is reported as “approximately 14 h” and the “degradation of the drug” value [2] is reported as “No detectable degradation”. The “time plasma concentrations near or above the preclinically determined effective concentration (MEC)” value ([3]; four of the seven patients in the 30 mg/m2 cohort) was “about 8 hours”, the “increases in AUC and CMAX” value ([3]; human patients, 0.6 to 40 mg/m^2, preliminary pharmacokinetics) was “dose-related” and the C1t [3, 7] was 282 mL/min/m^2. The Vss [3, 7] was 494 L/m^2, the AUC [3, 8] was 2100 ng·h/mL and the Cmax [3, 8] was 3430 ng/mL. The half-life [3, 8] was 33 h, the anticancer activity [4] was “demonstrated anticancer activity” and the aqueous solubility [5] was “water soluble”. The “concentration formulated without surfactants” value ([5]; with pH adjustment) was “at least 20 mg/mL”, the related toxicities [6] was “diarrhea, nausea, vomitting, anorexia, fatigue, anemia, alopecia, neuropathy, myalgia and neutropenia” and the “dose-limiting toxicity (DLT)” value ([6]; 0.6 to 40 mg/m^2) was “No dose-limiting toxicity (DLT) was observed”.
